The values that follow are results of earlier work, collected in patent US20190105343A1, “Treatment of Skin Conditions and Diseases Associated with Microbial Biofilms” (Bioclenz PH LLC, priority 2016, published 2019).

For series [1] the following is noted: aqueous solutions at 37° C.
Series [2] relates to aerobic and anaerobic gram-positive bacteria. The following applies: broth and biofilm cultures.
For the next series, the system named is Pseudomonas aeruginosa. To be noted: pH 5.0-6.0.

In brackets after ≈: the same amount, converted by molar mass.

Take `CCCCCCCCCCCC(=O)OCC(O)CO` (stereo not shown) [GML, glycerol monolaurate]: the solubility limit in series [1] is 0.1 mg/mL (≈ 364 µM). In addition, the bactericidal activity result in series [2] is listed as “bactericidal”. In addition, in the series on Pseudomonas aeruginosa, the killing entry is reported as “killed”. Also, in the series with Gram-negative anaerobes, the susceptibility result is “susceptible”.
